Laboratory results: ChEMBL document CHEMBL5058564, “EUbOPEN Chemogenomics Library 2 (Incucyte)” (2022)

Experiments:
Format in all cases: toxicity, cell-based
HEK-293T = assay: Incucyte cell viability with HEK293T; settings: human, 10 µM, compound concentration 10 uM
Fibroblast = assay: Incucyte cell viability with human fibroblast; settings: 10 µM, compound concentration 10 uM
U2OS = assay: Incucyte cell viability with U2OS; settings: human, 10 µM, compound concentration 10 uM
[1] = 0 h, replicate number 1, timepoint 0 hours
[2] = 0 h, replicate number 2, timepoint 0 hours
[3] = 12 h, replicate number 1, timepoint 12 hours
[4] = 18 h, replicate number 1, timepoint 18 hours
[5] = 24 h, replicate number 1, timepoint 24 hours
[6] = 24 h, replicate number 2, timepoint 24 hours
[7] = 6 h, replicate number 1, timepoint 6 hours
[8] = 6 h, replicate number 2, timepoint 6 hours
[9] = 12 h, replicate number 2, timepoint 12 hours
[10] = 18 h, replicate number 2, timepoint 18 hours
Also: unitless GR value; below 1 slowed growth and below 0 cell loss.

Compound | Growth Rate (HEK-293T; [1]) | Growth Rate (HEK-293T; [2]) | Growth Rate (HEK-293T; [3]) | Growth Rate (HEK-293T; [4]) | Growth Rate (HEK-293T; [5]) | Growth Rate (HEK-293T; [6]) | Growth Rate (Fibroblast; [2]) | Growth Rate (Fibroblast; [7]) | Growth Rate (Fibroblast; [8]) | Growth Rate (Fibroblast; [3]) | Growth Rate (Fibroblast; [9]) | Growth Rate (Fibroblast; [4]) | Growth Rate (Fibroblast; [5]) | Growth Rate (U2OS; [4]) | Growth Rate (U2OS; [5]) | Growth Rate (HEK-293T; [9]) | Growth Rate (U2OS; [8]) | Growth Rate (U2OS; [9]) | Growth Rate (U2OS; [10]) | Growth Rate (HEK-293T; [10]) | further results
O=C(O)COc1cccc(-c2ocnc2-c2nc(-c3ccccc3)c(-c3ccccc3)o2)c1 | 0.53 | -0.17 | 0.79 | 0.67 | 0.9 | 0.98 | 0.64 | 0.49 | 0.07 | 0.59 | 0.91 | 0.64 | 0.59 | 0.88 | 1 | – | – | – | – | – | Growth Rate (Fibroblast; [1]): 0.04; Growth Rate (U2OS; [1]): -0.56; Growth Rate (U2OS; [2]): 0.7; Growth Rate (U2OS; [3]): 0.74
CCNC1(C(N)=O)CCN(c2ncnc3c2nc(-c2ccccc2Cl)n3-c2ccc(Cl)cc2)CC1 [OTENABANT] | – | – | – | – | – | – | 0.22 | – | 0.96 | -0.34 | 1 | 0.38 | -0.07 | – | – | 0.81 | 0.79 | 0.93 | 0.92 | – | Growth Rate (Fibroblast; [1]): -0.61; Growth Rate (U2OS; [1]): -0.85; Growth Rate (U2OS; [6]): 0.93
CCCN[C@H]1CCc2nc(N)sc2C1.Cl.Cl | 0.73 | 0.77 | 0.99 | 0.97 | 0.93 | 0.81 | -0.13 | -0.38 | 0.73 | 0.31 | 0.7 | 0.84 | – | – | – | 0.53 | – | 0.97 | 0.92 | 0.77 | Growth Rate (HEK-293T; [8]): 0.07; Growth Rate (U2OS; [2]): 0.18
CCNC(=O)c1cc2c(-c3cc(C(C)(C)O)ccc3Oc3c(C)cc(F)cc3C)cn(C)c(=O)c2[nH]1 [ABBV-744] | 0.5 | 0.16 | – | 0.82 | 0.69 | 0.71 | – | 0.41 | 0.71 | 0.68 | – | 0.87 | 0.75 | – | -0.17 | – | – | – | – | – | Growth Rate (Fibroblast; [1]): 0.23; Growth Rate (Fibroblast; [6]): 0.87
Cl.O=C(O)c1cc(-c2ccc(C3CCNCC3)cc2)c2ccc(-c3ccc(C(F)(F)F)cc3)cc2c1 | -0.99 | -0.98 | 0.71 | 0.29 | 0.2 | 0.49 | -0.95 | -0.7 | 0.67 | -0.12 | 0.42 | -0.01 | 0.06 | 0.6 | 0.6 | – | 0.7 | 0.48 | 0.48 | 0.68 | Growth Rate (Fibroblast; [1]): -0.16; Growth Rate (Fibroblast; [10]): 0.43; Growth Rate (Fibroblast; [6]): 0.23; Growth Rate (U2OS; [7]): 0.77; Growth Rate (U2OS; [3]): 0.79; Growth Rate (U2OS; [6]): 0.44
CC(C)n1cnc2c(Nc3cccc(Cl)c3)nc(N[C@H]3CCCC[C@@H]3N)nc21 | – | – | -0.51 | -0.35 | -0.25 | -0.39 | – | 0.31 | -0.31 | 0.73 | 0.36 | 0.33 | 0.41 | 0.03 | 0.06 | -0.69 | 0.4 | 0.04 | -0.02 | -0.48 | Growth Rate (HEK-293T; [7]): -0.84; Growth Rate (HEK-293T; [8]): -0.89; Growth Rate (U2OS; [7]): -0.04; Growth Rate (U2OS; [3]): -0.12; Growth Rate (U2OS; [6]): 0.05
C[C@]12N[C@H](Cc3ccccc31)c1ccccc12 [DIZOCILPINE] | – | – | – | – | – | 1 | 0.6 | 0.45 | – | 0.08 | – | 0.43 | 0.25 | 0.97 | – | 0.84 | 0.81 | 0.75 | 0.93 | 0.88 | Growth Rate (U2OS; [7]): 0.6; Growth Rate (U2OS; [6]): 0.98
CN1CCN(c2ccc(Nc3c4ccccc4nc4ccccc34)cc2)CC1.Cl.Cl.O | – | – | -0.78 | -0.62 | -0.48 | -0.52 | 0.35 | -0.84 | 0.16 | -0.56 | 0.17 | -0.39 | -0.25 | -0.2 | -0.28 | -0.81 | 0.29 | -0.02 | -0.17 | -0.61 | Growth Rate (HEK-293T; [7]): -0.94; Growth Rate (HEK-293T; [8]): -0.96; Growth Rate (Fibroblast; [10]): 0.08; Growth Rate (Fibroblast; [6]): 0.11; Growth Rate (U2OS; [2]): 0.67; Growth Rate (U2OS; [7]): 0.19; Growth Rate (U2OS; [3]): -0.09
C[C@@H](OC[C@@]1(c2ccccc2)CC[C@]2(CCC(=O)N2)CN1)c1cc(C(F)(F)F)cc(C(F)(F)F)c1 [ROLAPITANT] | – | – | 0.83 | 0.88 | 0.89 | 1 | 0.28 | -0.04 | – | 0.02 | 0.68 | 0.57 | 0.27 | 0.79 | 0.84 | 0.57 | 0.54 | 0.49 | 0.63 | 0.81 | Growth Rate (HEK-293T; [8]): 0.73; Growth Rate (U2OS; [7]): -0.32; Growth Rate (U2OS; [6]): 0.64
Cc1cnc(-c2cc(N3CCN(C(=O)CCS(C)(=O)=O)CC3)ncc2Cl)c(C)c1 | 0.65 | 0.96 | – | – | – | – | – | 0.66 | 0.05 | 0.76 | 0.17 | 0.94 | 0.94 | – | – | – | 0.63 | – | 0.92 | – | Growth Rate (Fibroblast; [10]): 0.71
